Reference: US20070149465A1, “COMPOSITIONS AND METHODS FOR PREVENTION AND TREATMENT OF CACHEXIA” (priority 2005, published 2007)
≈ marks a conversion by molar mass, not a printed value.

Columns and labels:
[1] = test system: Saline-inoculated rats; test: Rat AH130 experiments, saline-inoculated control rats given drug; format: in vivo, female Wistar rats; conditions: for Carcass Weights Mean / Gastrocnemius Weights Mean / Heart Weights Mean: Saline, Day 5, normalized to 100 g Day 5 Total Body Weight
Method: Following the method of Busquets et al (Busquets S, et al: Cancer Res 64:6725-31, 2004), female Wistar rats were inoculated (Day 0) intra-peritoneally (i.p.) with 2×10^7 cells/animal of Yoshida AH-130 ascites hepatoma (AH) cells. Control animals were inoculated with an equivalent amount of sterile saline solution. […] The animals were sacrificed on Day 5. Upon sacrifice, wet weights of heart and gastrocnemius muscle were determined. Carcass (after gastrocnemius, heart, and ascites removal) weight was also determined upon sacrifice.
Treatment Group=Inoculation Type/Vehicle, or Treatment Group=Inoculation Type/F(x)R(y) where, Inoculation Type is either AH or Saline, F is formoterol fumarate, R is roxithromycin, and the parenthetical values are formoterol fumarate and roxithromycin doses (i.p. in mg/kg).

[2] = Aqueous solubility of roxithromycin (pH, buffer, ethanol); format: physicochemical; conditions: 25 °C, thermodynamic from solid
Method: The solutions were syringe-filtered and analyzed by HPLC for [roxithromycin]. Roxithromycin Potency was assayed by a reverse-phase HPLC method that meets the requirements of the European Pharmacopeia (EP) Monograph for roxithromycin. Solution pH values were determined per USP <791> and solution osmolality values were determined per USP <785>. Aqueous solubility limits were determined for roxithromycin as a function of buffer type (phosphate versus citrate), buffer concentration, pH, and added co-solvent (ethanol).

[3] = Stability of formoterol fumarate and roxithromycin co-formulated in oral solution; format: physicochemical; conditions: co-formulated 0.005 mg/mL formoterol fumarate + 2.0 mg/mL roxithromycin, pH 6.0, 20 mM citrate, 4.5% mannitol, 0.1% potassium sorbate
Method: Roxithromycin Potency was assayed by a reverse-phase HPLC method that meets the requirements of the European Pharmacopeia (EP) Monograph for roxithromycin.

[4] = Exp 2 Group 9, F 0, R 5 mg/kg i.p.
[5] = Exp 3 Group 15, F 0, R 40 mg/kg i.p.

With CC[C@H]1OC(=O)[C@H](C)[C@@H](O[C@H]2C[C@@](C)(OC)[C@@H](O)[C@H](C)O2)[C@H](C)[C@@H](O[C@@H]2O[C@H](C)C[C@H](N(C)C)[C@H]2O)[C@](C)(O)C[C@@H](C)/C(=N\OCOCCOC)[C@H](C)[C@@H](O)[C@]1(C)O [roxithromycin] the “Carcass Weights Mean” value [1, 4] was 97.6 g, the “Gastrocnemius Weights Mean” value [1, 4] was 0.575 g and the “Heart Weights Mean” value [1, 4] was 0.390 g. The “Carcass Weights Mean” value [1, 5] was 96.5 g, the “Gastrocnemius Weights Mean” value [1, 5] was 0.529 g and the “Heart Weights Mean” value [1, 5] was 0.400 g. The “gastrocnemius muscle weights compared with Saline/vehicle group” value ([1]; Experiment 2, Saline/F(0)R(5) group) was “approximately the same”, the “gastrocnemius muscle weights compared with Saline/vehicle control group” value ([1]; Experiment 3, Saline/F(0)R(40) group) was “not different” and the solubility at 24 h ([2]; citrate buffer, pH 4, aqueous buffer, 20 mM citrate, pH 4) was 4130 µg/mL (≈ 4.93 mM). It also gave a solubility at 24 h ([2]; citrate buffer, pH 4, aqueous buffer, 50 mM citrate, pH 4) of 4610 µg/mL (≈ 5.51 mM), a solubility at 24 h ([2]; citrate buffer, pH 4, aqueous buffer, 100 mM citrate, pH 4) of 1890 µg/mL (≈ 2.26 mM) and a solubility at 24 h ([2]; citrate buffer, pH 4, aqueous buffer, 200 mM citrate, pH 4) of 2740 µg/mL (≈ 3.27 mM). For the same compound, the solubility at 24 h ([2]; citrate buffer, pH 5, aqueous buffer, 20 mM citrate, pH 5) was 3540 µg/mL (≈ 4.23 mM), the solubility at 24 h ([2]; citrate buffer, pH 5, aqueous buffer, 50 mM citrate, pH 5) was 3570 µg/mL (≈ 4.26 mM) and the solubility at 24 h ([2]; citrate buffer, pH 5, aqueous buffer, 100 mM citrate, pH 5) was 2770 µg/mL (≈ 3.31 mM). The solubility at 24 h ([2]; citrate buffer, pH 5, aqueous buffer, 200 mM citrate, pH 5) was 1900 µg/mL (≈ 2.27 mM), the solubility at 24 h ([2]; citrate buffer, pH 6, aqueous buffer, 20 mM citrate, pH 6) was 2450 µg/mL (≈ 2.93 mM) and the solubility at 24 h ([2]; citrate buffer, pH 6, aqueous buffer, 50 mM citrate, pH 6) was 2760 µg/mL (≈ 3.3 mM). It also gave a solubility at 24 h ([2]; citrate buffer, pH 6, aqueous buffer, 100 mM citrate, pH 6) of 2300 µg/mL (≈ 2.75 mM), a solubility at 24 h ([2]; citrate buffer, pH 6, aqueous buffer, 200 mM citrate, pH 6) of 1720 µg/mL (≈ 2.05 mM) and a solubility at 24 h ([2]; citrate buffer, pH 7, aqueous buffer, 20 mM citrate, pH 7) of 500 µg/mL (≈ 0.597 mM). It also gave a solubility at 24 h ([2]; citrate buffer, pH 7, aqueous buffer, 50 mM citrate, pH 7) of 980 µg/mL (≈ 1.17 mM), a solubility at 24 h ([2]; citrate buffer, pH 7, aqueous buffer, 100 mM citrate, pH 7) of 1230 µg/mL (≈ 1.47 mM) and a solubility at 24 h ([2]; citrate buffer, pH 7, aqueous buffer, 200 mM citrate, pH 7) of 1250 µg/mL (≈ 1.49 mM). It also gave a solubility at 24 h ([2]; phosphate buffer with ethanol co-solvent, pH 5, aqueous with cosolvent or surfactant or cyclodextrin, pH 5, 10 mM phosphate, 5% ethanol) of 3500 µg/mL (≈ 4.18 mM), a solubility at 24 h ([2]; phosphate buffer with ethanol co-solvent, pH 5, aqueous with cosolvent or surfactant or cyclodextrin, pH 5, 10 mM phosphate, 10% ethanol) of 3800 µg/mL (≈ 4.54 mM) and a solubility at 24 h ([2]; phosphate buffer with ethanol co-solvent, pH 5, aqueous with cosolvent or surfactant or cyclodextrin, pH 5, 20 mM phosphate, 5% ethanol) of 5500 µg/mL (≈ 6.57 mM). For the same compound, the solubility at 24 h ([2]; phosphate buffer with ethanol co-solvent, pH 5, aqueous with cosolvent or surfactant or cyclodextrin, pH 5, 20 mM phosphate, 10% ethanol) was 6000 µg/mL (≈ 7.17 mM), the solubility at 24 h ([2]; phosphate buffer with ethanol co-solvent, pH 5, aqueous with cosolvent or surfactant or cyclodextrin, pH 5, 50 mM phosphate, 5% ethanol) was 8300 µg/mL (≈ 9.92 mM) and the solubility at 24 h ([2]; phosphate buffer with ethanol co-solvent, pH 5, aqueous with cosolvent or surfactant or cyclodextrin, pH 5, 50 mM phosphate, 10% ethanol) was 9200 µg/mL (≈ 11 mM). It also gave a solubility at 24 h ([2]; phosphate buffer with ethanol co-solvent, pH 6, aqueous with cosolvent or surfactant or cyclodextrin, pH 6, 10 mM phosphate, 5% ethanol) of 4100 µg/mL (≈ 4.9 mM), a solubility at 24 h ([2]; phosphate buffer with ethanol co-solvent, pH 6, aqueous with cosolvent or surfactant or cyclodextrin, pH 6, 10 mM phosphate, 10% ethanol) of 3900 µg/mL (≈ 4.66 mM) and a solubility at 24 h ([2]; phosphate buffer with ethanol co-solvent, pH 6, aqueous with cosolvent or surfactant or cyclodextrin, pH 6, 20 mM phosphate, 5% ethanol) of 4600 µg/mL (≈ 5.5 mM). For the same compound, the solubility at 24 h ([2]; phosphate buffer with ethanol co-solvent, pH 6, aqueous with cosolvent or surfactant or cyclodextrin, pH 6, 20 mM phosphate, 10% ethanol) was 5000 µg/mL (≈ 5.97 mM), the solubility at 24 h ([2]; phosphate buffer with ethanol co-solvent, pH 6, aqueous with cosolvent or surfactant or cyclodextrin, pH 6, 50 mM phosphate, 5% ethanol) was 8100 µg/mL (≈ 9.68 mM) and the solubility at 24 h ([2]; phosphate buffer with ethanol co-solvent, pH 6, aqueous with cosolvent or surfactant or cyclodextrin, pH 6, 50 mM phosphate, 10% ethanol) was 9300 µg/mL (≈ 11.1 mM). It also gave a solubility at 24 h ([2]; phosphate buffer with ethanol co-solvent, pH 7, aqueous with cosolvent or surfactant or cyclodextrin, pH 7, 10 mM phosphate, 5% ethanol) of 1800 µg/mL (≈ 2.15 mM), a solubility at 24 h ([2]; phosphate buffer with ethanol co-solvent, pH 7, aqueous with cosolvent or surfactant or cyclodextrin, pH 7, 10 mM phosphate, 10% ethanol) of 1700 µg/mL (≈ 2.03 mM) and a solubility at 24 h ([2]; phosphate buffer with ethanol co-solvent, pH 7, aqueous with cosolvent or surfactant or cyclodextrin, pH 7, 20 mM phosphate, 5% ethanol) of 1700 µg/mL (≈ 2.03 mM). It also gave a solubility at 24 h ([2]; phosphate buffer with ethanol co-solvent, pH 7, aqueous with cosolvent or surfactant or cyclodextrin, pH 7, 20 mM phosphate, 10% ethanol) of 2100 µg/mL (≈ 2.51 mM), a solubility at 24 h ([2]; phosphate buffer with ethanol co-solvent, pH 7, aqueous with cosolvent or surfactant or cyclodextrin, pH 7, 50 mM phosphate, 5% ethanol) of 2300 µg/mL (≈ 2.75 mM) and a solubility at 24 h ([2]; phosphate buffer with ethanol co-solvent, pH 7, aqueous with cosolvent or surfactant or cyclodextrin, pH 7, 50 mM phosphate, 10% ethanol) of 3100 µg/mL (≈ 3.7 mM). For the same compound, the solubility at 24 h ([2]; phosphate buffer, pH 5, aqueous buffer, pH 5, 10 mM phosphate, 0% ethanol) was 3200 µg/mL (≈ 3.82 mM), the solubility at 24 h ([2]; phosphate buffer, pH 5, aqueous buffer, pH 5, 20 mM phosphate, 0% ethanol) was 5200 µg/mL (≈ 6.21 mM) and the solubility at 24 h ([2]; phosphate buffer, pH 5, aqueous buffer, pH 5, 50 mM phosphate, 0% ethanol) was 7200 µg/mL (≈ 8.6 mM). It also gave a solubility at 24 h ([2]; phosphate buffer, pH 6, aqueous buffer, pH 6, 10 mM phosphate, 0% ethanol) of 2800 µg/mL (≈ 3.35 mM), a solubility at 24 h ([2]; phosphate buffer, pH 6, aqueous buffer, pH 6, 20 mM phosphate, 0% ethanol) of 4200 µg/mL (≈ 5.02 mM) and a solubility at 24 h ([2]; phosphate buffer, pH 6, aqueous buffer, pH 6, 50 mM phosphate, 0% ethanol) of 6700 µg/mL (≈ 8 mM). For the same compound, the solubility at 24 h ([2]; phosphate buffer, pH 7, aqueous buffer, pH 7, 10 mM phosphate, 0% ethanol) was 1400 µg/mL (≈ 1.67 mM), the solubility at 24 h ([2]; phosphate buffer, pH 7, aqueous buffer, pH 7, 20 mM phosphate, 0% ethanol) was 1300 µg/mL (≈ 1.55 mM) and the solubility at 24 h ([2]; phosphate buffer, pH 7, aqueous buffer, pH 7, 50 mM phosphate, 0% ethanol) was 2000 µg/mL (≈ 2.39 mM). For the same compound, the “Roxithromycin Potency” value ([3]; week 0, 5 ° C.) was 1920 µg/mL, the “Roxithromycin Potency” value ([3]; week 0, 25 ° C.) was 1920 µg/mL and the “Roxithromycin Potency” value ([3]; week 0, 40 ° C.) was 1920 µg/mL. The “Roxithromycin Potency” value ([3]; week 2, 25 ° C.) was 1740 µg/mL, the “Roxithromycin Potency” value ([3]; week 2, 40 ° C.) was 1610 µg/mL and the “Roxithromycin Potency” value ([3]; week 4, 5 ° C.) was 1920 µg/mL. For the same compound, the “Roxithromycin Potency” value ([3]; week 4, 25 ° C.) was 1710 µg/mL and the “Roxithromycin Potency” value ([3]; week 4, 40 ° C.) was 1470 µg/mL.
